Literature values as cited in publication PMC6972991 (Chemistry (Weinheim an Der Bergstrasse, Germany), 2019).

pKa: ≈ 4
SMILES: O=S(=O)(O)c1ccccc1 [benzenesulfonic acid]
